Read-outs that look alike come from different tables or passages of the source.
Experiments:
P. falciparum 3D7 cells = conditions: read-out: EC50 (μM) Pf3D7; clone 3D7; ref [27],[29]; cited from earlier work
P. berghei [1] = conditions: mice, oral dosing; ref [29]; cited from earlier work
hDHODH = hDHODH (Homo sapiens, UniProt Q02127); conditions: cited from earlier work
[2] = human liver microsomes; ref Gujjar et al. [29]; cited from earlier work
PfDHODH = molecular target: T1, PfDHODH (Plasmodium falciparum, UniProt Q08210); test: biochemical; assay type: biochemical; conditions: for fold less potent against PfDHODH than the comparable triazolopyrimidine 1: reduction in binding affinity/activity relative to 1
T1 sequence (Q08210 24-569): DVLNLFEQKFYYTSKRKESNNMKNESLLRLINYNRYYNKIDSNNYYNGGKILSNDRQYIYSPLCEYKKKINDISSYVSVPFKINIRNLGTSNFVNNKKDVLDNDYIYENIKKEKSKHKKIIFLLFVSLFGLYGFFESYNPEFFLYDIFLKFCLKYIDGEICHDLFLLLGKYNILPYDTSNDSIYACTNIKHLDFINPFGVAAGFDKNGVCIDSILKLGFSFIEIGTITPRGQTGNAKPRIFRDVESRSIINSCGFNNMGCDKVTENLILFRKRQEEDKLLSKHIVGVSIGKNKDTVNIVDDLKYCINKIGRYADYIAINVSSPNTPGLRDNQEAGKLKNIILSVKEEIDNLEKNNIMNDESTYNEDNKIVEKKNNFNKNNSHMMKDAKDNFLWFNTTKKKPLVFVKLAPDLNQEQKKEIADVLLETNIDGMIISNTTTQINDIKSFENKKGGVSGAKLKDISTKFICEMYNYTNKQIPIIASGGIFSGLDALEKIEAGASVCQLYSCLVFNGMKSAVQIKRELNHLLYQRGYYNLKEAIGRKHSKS

PbDHODH = PbDHODH (Plasmodium berghei, UniProt A0A509AEH5); test: PbDHODH steady-state colorimetric DCIP enzyme assay; assay type: biochemical; conditions: relative to 2
[3] = In vitro metabolic stability in human liver microsomes; assay type: in vitro ADME
[4] = In vitro metabolic stability in mouse liver microsomes; assay type: in vitro ADME
[5] = Mouse pharmacokinetics after single oral dose; assay type: in vivo; conditions: mice
P. berghei [6] = test: P. berghei mouse in vivo efficacy model; design: species or system Plasmodium berghei; conditions: mice

Chain of hDHODH (Q02127 whole entry): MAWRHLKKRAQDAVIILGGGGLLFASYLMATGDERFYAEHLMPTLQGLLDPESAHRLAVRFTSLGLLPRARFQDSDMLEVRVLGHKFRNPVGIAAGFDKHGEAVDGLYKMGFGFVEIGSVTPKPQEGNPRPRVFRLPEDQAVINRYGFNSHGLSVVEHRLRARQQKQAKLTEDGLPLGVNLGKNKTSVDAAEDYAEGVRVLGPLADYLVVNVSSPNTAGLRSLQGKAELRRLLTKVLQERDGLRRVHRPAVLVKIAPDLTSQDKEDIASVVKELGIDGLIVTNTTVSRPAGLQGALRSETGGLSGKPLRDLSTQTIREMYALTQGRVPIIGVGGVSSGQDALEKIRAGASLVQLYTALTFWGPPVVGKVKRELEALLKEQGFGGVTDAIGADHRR
Chain of PbDHODH (A0A509AEH5 132-517 limits assumed): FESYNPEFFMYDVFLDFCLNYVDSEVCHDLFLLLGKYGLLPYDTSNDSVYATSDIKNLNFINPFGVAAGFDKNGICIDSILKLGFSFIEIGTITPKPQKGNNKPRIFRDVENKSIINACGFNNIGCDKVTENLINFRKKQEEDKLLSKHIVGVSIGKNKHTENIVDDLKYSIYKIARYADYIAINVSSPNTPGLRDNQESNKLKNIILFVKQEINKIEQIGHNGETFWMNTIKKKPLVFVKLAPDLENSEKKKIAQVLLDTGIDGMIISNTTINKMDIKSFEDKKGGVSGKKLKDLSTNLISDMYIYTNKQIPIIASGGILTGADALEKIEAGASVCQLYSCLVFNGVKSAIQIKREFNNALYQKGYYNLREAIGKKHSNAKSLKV

In the case of `Cc1cc(Nc2ccc3ccccc3c2)n2ncnc2n1` [Compound 1, (5-methyl-[1,2,4]triazolo[1,5-a]pyrimidin-7-yl)naphthalene-2-ylamine], the EC50 (P. falciparum 3D7 cells) is listed as 0.076 µM, the “in vivo efficacy in the P. berghei model (in words)” value (P. berghei [1]) is listed as “no anti-parasite activity” and the IC50 (hDHODH; read-out: IC50 (μM) hDHODH, ref [27],[29]) is listed as over 100 µM. For the same compound, the “activity against human DHODH (in words)” value (hDHODH; ref [26]–[28]) was “without inhibiting human DHODH”.

In the case of `Cc1cc(Nc2ccc(C(F)(F)F)cc2)n2ncnc2n1` [Compound 2, 5-methyl-N-(4-(trifluoromethyl)phenyl)-[1,2,4]triazolo[1,5-a]pyrimidin-7-amine], the “Predicted EH” value [2] is given as 0.29 and the “in vivo efficacy in the P. berghei model (in words)” value (P. berghei [1]) is given as “able to suppress parasitemia”.

For `Cc1cc(NC(=O)c2ccccc2)n2ncnc2n1` [Compound 4, N-(5-methyl-[1,2,4]triazolo[1,5-a]pyrimidin-7-yl)benzamide], the IC50 (PfDHODH) was over 100 µM and the “PfDHODH activity (in words)” value (PfDHODH) was “loss of activity”.

For `Cc1cc(NC(=O)c2ccc(C(F)(F)F)cc2)n2ncnc2n1` [Compound 5], the IC50 (PfDHODH) was over 100 µM and the “PfDHODH activity (in words)” value (PfDHODH) was “loss of activity”.

For `Cc1cc(Nc2ccc3ccccc3c2)n2ccnc2n1` [Compound 6, 7-Methyl-N-(naphthalen-2-yl)imidazo[1,2-a]pyrimidin-5-amine], the “fold less potent against PfDHODH than the comparable triazolopyrimidine 1” value (shortened to “fold less potent”) (PfDHODH) was 3 fold.

For `Cc1cc(Nc2ccc3ccccc3c2)n2ncnc2c1` [Compound 7, 7-Methyl-N-(naphthalen-2-yl)-[1,2,4]triazolo[1,5-a]pyridin-5-amine], the “fold less potent” value (PfDHODH) was 100 fold.

For `Cc1cc(Nc2ccc3ccccc3c2)n2nccc2n1` [Compound 8, 5-Methyl-N-(naphthalen-2-yl)pyrazolo[1,5-a]pyrimidin-7-amine], the “fold less potent” value (PfDHODH) was ~ 8.5 fold.

In the case of `Cc1nc(Nc2ccc3ccccc3c2)c2nc[nH]c2n1` [Compound 9, 2-Methyl-N-(naphthalen-2-yl)-9H-purin-6-amine], the “fold less potent” value (PfDHODH) is reported as ~ 9 fold.

In the case of `Cc1nc(Nc2ccc3ccccc3c2)c2cn[nH]c2n1` [Compound 10, 6-Methyl-N-(naphthalen-2-yl)-1H-pyrazolo[3,4-d]pyrimidin-4-amine], the IC50 (PfDHODH) is reported as over 100 µM and the “PfDHODH activity (in words)” value (PfDHODH) is reported as “inactivated”.

In the case of `Cc1cc(Nc2ccc3ccccc3c2)c2nncn2n1` [Compound 11, 6-Methyl-N-(naphthalen-2-yl)-[1,2,4]triazolo[4,3-b]pyridazin-8-amine], the IC50 (PfDHODH) is reported as over 50 µM and the “PfDHODH activity (in words)” value (PfDHODH) is reported as “inactivated”.

In the case of `Cc1nc(Nc2ccc3ncccc3c2)c2nc[nH]c2n1` [Compound 14, N-(2-Methyl-9H-purin-6-yl)quinolin-6-amine], the IC50 (PfDHODH) is reported as over 25 µM.

With `Cc1nc(Nc2n[nH]cc2C#N)c2nc[nH]c2n1` [Compound 15, 3-(2-Methyl-9H-purin-6-ylamino)-1H-pyrazole-4-carbonitrile] the IC50 (PfDHODH) was over 100 µM and the “PfDHODH activity (in words)” value (PfDHODH) was “inactive”.

For `Cc1cc(Nc2ccc(C(F)(F)F)cc2)n2ccnc2n1` [Compound 16, 7-Methyl-N-(4-(trifluoromethyl)phenyl)imidazo[1,2-a]pyrimidin-5-amine], the “fold more potent against PfDHODH than the equivalent triazolopyrimidine 2” value (PfDHODH; relative to 2) was 4 fold, the “fold better potency against PbDHODH than 2” value (PbDHODH) was 2 fold and the Putative metabolites ([3]; human liver microsomes) was “None detected”. For the same compound, the “Predicted EH” value ([3]; human liver microsomes, predicted in vivo hepatic extraction ratio) was 0.21, the microsomal CLint at 1 μM ([3]; human, pooled human liver microsomes) was 4.7 µL/min/mg and the Putative metabolites ([4]; mouse liver microsomes) was “None detected”. The “Predicted EH” value ([4]; mouse liver microsomes, predicted in vivo hepatic extraction ratio) was 0.59, the “in vitro clearance class” value ([4]; mouse microsomes) was “intermediate” and the microsomal CLint at 1 μM ([4]; mouse, pooled mouse liver microsomes) was 34 µL/min/mg. For the same compound, the “adverse reactions following oral administration” value ([5]; 10 mg/kg oral) was “No adverse reactions were observed”, the peak plasma concentrations ([5]; single oral dose 10 mg/kg) was 3.9 µM and the “time plasma levels maintained above 1 μM” value ([5]; single oral dose 10 mg/kg) was “about 4 h”. The “in vivo efficacy in the P. berghei model (in words)” value (P. berghei [6]) was “suppresses parasites in vivo”.

Reference: publication PMC3446820 (Journal of medicinal chemistry, 2012)
